Test results taken from US20210363124A1, “HETEROCYCLYL POLYMETHINE IR CHROMOPHORES” (The Regents of the University of California, priority 2018, published 2021).
Entries after “also recorded” stand apart in the source; their conditions may differ.

Tests used:
Assay type in all cases: physicochemical
[1] = Photobleaching under continuous-wave irradiation (532 nm, 0.53 fluence); settings: for photostability (in words): dichloromethane, 532 nm irradiation
Method: Photostabilities of the Flav series were measured under continuous-wave irradiation (532 nm, 0.53 fluence).
(§1) Polymethine dyes disclosed herein are characterized with respect to their photophysics including absorption, emission, extinction coefficient, quantum yields, and fluorescence lifetime. All quantum yields values obtained are absolute quantum yields values measured using an integrating sphere. Photostabilities are evaluated by sample irradiation with high powered LEDs. Additionally, solvatochromism, solvent compatibility, and stability are assessed.

[2] = Emission spectra and absolute fluorescence quantum yield in dichloromethane (integrating sphere)
Method: (§2) The absorption, emission, and photostability properties of flavylium dyes 3-6 were measured.
Finally, the photoluminescence of Flav7 was compared to the prominent SWIR polymethine dyes, IR-26 and IR-1061. IR-26 has been widely-employed as a standard for this region, while IR-1061 has recently been the active component of nanomaterials for NIR-II in vivo imaging. Despite numerous studies which rely on these dyes, the reported ΦF for IR-26 have been inconsistent, and the ΦF of IR-1061 has yet to be thoroughly characterized. Consequently, to establish that Flav7 is more emissive than existing SWIR polymethine dyes, each dye's emission was directly compared using a SWIR camera. We prepared solutions of 3, IR-26, and IR-1061 in dichloromethane with identical absorbance at 808 nm, excited with a diffuse 808 nm laser, and imaged their emission over 1000-1500 nm.
(§3) The absorbance spectra in FIG. 2 and FIGS. 4A-4G were obtained in DCM on a JASCO V-770 UV-Visible/NIR spectrophotometer with a 2000 nm/min or 4000 nm/min scan rate. Plotted are the baseline corrected and normalized data. The emission spectra in FIG. 2 were taken in DCM on either a Horiba Instruments PTI QuantaMaster Series fluorometer (6), a Fluoromax-3 spectrofluorometer (1, 3-5), or home-built InGaAs array detector (Princeton Instruments). For 6 the following parameters were used: ex. 610 nm, emission collected from 620-900 nm, slits 5 nm, step size 1 nm, integration time 1 s. Plotted is the DCM corrected, baseline corrected, normalized data. For 1, and 3-5, the following parameters were used: slits 5 nm, step size 1 nm, integration time, 0.25 s. […]
as §1

[3] = Absorption spectra of flavylium dyes in dichloromethane (UV-Visible/NIR spectrophotometer)
Method: as §2, §3, §1

CN(C)c1ccc2c(c1)OC(c1ccccc1)=C\C2=C/C=C/C=C/c1cc(-c2ccccc2)[o+]c2cc(N(C)C)ccc12.[O-][Cl+3]([O-])([O-])[O-] [Dye 4, 7-(dimethylamino)-4-((1E,3E)-5-((E)-7-(dimethylamino)-2-phenyl-4H-chromen-4-ylidene)penta-1,3-dien-1-yl)-2-phenylchromenylium perchlorate]
photostability (in words) ([1]; listed as Flav5): excellent photostabilities; also recorded: desirable photostability

CN(C)c1ccc2c(c1)OC(c1ccccc1)=C/C2=C\C=C\c1cc(-c2ccccc2)[o+]c2cc(N(C)C)ccc12.[O-][Cl+3]([O-])([O-])[O-] [Dye 5, 7-(Dimethylamino)-4-((E)-3-((E)-7-(dimethylamino)-2-phenyl-4H-chromen-4-ylidene)prop-1-en-1-yl)-2-phenylchromenylium perchlorate]
photostability (in words) [1]: excellent photostabilities | photostability relative to HITCI ([1]; more photostable than HITCI): 4 fold

CN(C)c1ccc2c(c1)OC(c1ccccc1)=C/C2=C\c1cc(-c2ccccc2)[o+]c2cc(N(C)C)ccc12.O=C([O-])C(F)(F)F [Dye 6, (E)-7-(Dimethylamino)-4-((7-(dimethylamino)-2-phenyl-4H-chromen-4-ylidene)methyl)-2-phenylchromenylium 2,2,2-trifluoroacetate]
photostability (in words) [1]: excellent photostabilities

CN1C(=CC=CC=CC=CC2=[N+](C)c3ccccc3C2(C)C)C(C)(C)c2ccccc21.[I-] [HITCI, 1,1′,3,3,3′,3′-hexamethylindotricarbocyanine iodide]
ΦF relative to Flav3 ([2]; higher ΦF than Flav3): ~10 fold | absorption (DCM) λmax [3]: ~745 nm | absorption (DCM) ε ([3]; at λmax): ~220,000 M^−1cm^−1

ClC1=C(/C=C/c2cc(-c3ccccc3)[s+]c(-c3ccccc3)c2)CCC/C1=C/C=C1C=C(c2ccccc2)SC(c2ccccc2)=C1.F[B-](F)(F)F [IR-1061]
emission (DCM) λmax ([2]; dichloromethane): 1081 nm | ΦF ([2]; dichloromethane, absolute quantum yield): 0.32±0.04%
